Results published in patent US20140248292A1, “COMPOSITIONS AND METHODS FOR TREATING CANCER” (priority 2013, published 2014).

What was measured:
[1] = system: orthotopic models of mucinous peritoneal surface malignancies; assay: In vivo tumor growth, orthotopic models of mucinous peritoneal surface malignancies (model not singled out); details: all models; 10 mg/kg i.p.
[2] = system: mucinous tumor tissue (PMP-2, PMCA-2, PMP-3, PMP-6); assay: Ex vivo PARP cleavage, Western immunoblot; type: cell-based, human; details: 24 h, PMP-2 xenograft tissue and both patient samples
Description: The mucinous cell suspension was seeded in 48-well plates (500 μl/well). […] Thereafter, the cells were lysed by using an SDS boiling method as described previously (Andersson2009). In brief, cell pellets were resuspended in lysis buffer (2% SDS, 1 mM Na3VO4, and 10 mM Tris-Cl (pH 7.6)), which was held at 100° C. when added, and the lysates were boiled for 5 min. After six passages through a 20G syringe on ice, the lysates were cleared by centrifugation. Protein concentrations were then determined using the BCA (bicinchoninic acid) protein assay (Pierce, Rockford, Ill.). The lysates were snap frozen in liquid N2 and kept at −70° C. A portion (15 μg) of each protein lysate was fractionated by 4-12% NuPAGE Bis-Tris gel electrophoresis (Invitrogen, Carlsbad, Calif.), and subsequently transferred by electroblotting to Immobilon membranes (Millipore, Bedford, Mass.). The filters were probed with an anti-PARP antibody (Roche Diagnostics, Mannheim, Germany), anti-EpCAM (MOC31, IQ Corporation, Groningen, the Netherlands) or with anti-alpha tubulin (Calbiochem, La Jolla, Calif.). Immune complexes were detected with an appropriate HRP-coupled secondary antibody. Peroxidase activity was visualized with […] (Amersham Pharmacia Biotech, Buckinghamshire, UK). The western blots were probed with anti-α-tubulin antibody to confirm equal loading and transfer of samples.

[3] = system: 2774 ovarian peritoneal carcinomatosis; assay: 2774 ovarian peritoneal carcinomatosis mouse model; type: in vivo; details: 2774 model; treatment initiated on day 2
Source text: The therapeutic potential of intraperitoneal administration of MOC31PE was then investigated in two experimental mouse models based on the ovarian cancer cell lines B76 (FIG. 15) and 2774 (FIG. 16). The animals were divided into three groups. Day 1 the animals were intraperitoneal injected with B76 cancer cell to mimic the situation in patients after cytoreductive surgery, were non-visible cancer cells are still left. MOC31PE treatment was initiated the day after (Day 2) or on day 8, as indicated by giving either MOC31PE 50 μg/kg intraperitoneal injection (i.p.) or 32 μg/kg intravenous injection (i.v.). […] Disease progression, as increase of abdominal size and other signs of symptoms, were measured twice weekly. Body weight was recorded throughout the experiments. Survival as a function of treatment was analysed by Kaplan-Meier plots.

[4] = system: PMP-2 model; assay: In vivo tumor growth, orthotopic PMP-2 model, single injection
[5] = system: PMP-1 model; assay: In vivo tumor growth, orthotopic PMP-1 model, single i.p. injection; details: both tested doses (2.5 and 5 mg/kg i.p.)
[6] = system: PMCA-1 model; assay: In vivo tumor growth, orthotopic PMCA-1 model, single i.p. injection; details: 5 mg/kg vs 2.5 mg/kg i.p.

Molecule: O=C1[O][Pt]2([NH][C@@H]3CCCC[C@H]3[NH]2)[O]C1=O [Oxaliplatin, oxaliplatin]
- growth inhibition (growth indices) compared to vehicle-treated animals [1]: only slight reduction of growth indices

Molecule: pseudomonas exotoxin A [PE toxin]
- PARP cleavage / PARP inactivation (Western immunoblot) [2]: No PARP inactivation was evident

Molecule: CC(=O)O[C@H]1C(=O)[C@@]2(C)[C@H]([C@H](OC(=O)c3ccccc3)[C@]3(O)C[C@H](OC(=O)[C@H](O)[C@@H](NC(=O)c4ccccc4)c4ccccc4)C(C)=C1C3(C)C)[C@]1(OC(C)=O)CO[C@@H]1C[C@@H]2O [Ptx, Paclitaxel]
- survival / disease progression, combinatorial treatment experiment [3]: significant effect on disease progression

Molecule: CO[C@@]12[C@H](COC(N)=O)C3=C(C(=O)C(C)=C(N)C3=O)N1C[C@@H]1N[C@@H]12 [Mitomycin C, mitomycin C]
- inhibition of tumor growth ([4]; all tested doses, single i.p.): substantial inhibition of tumor growth
- tumor growth within the observation period ([4]; both tested doses (2.5 and 5 mg/kg i.p.)): almost completely inhibited tumor growth
- tumor growth within the observation period [5]: almost completely inhibited tumor growth
- efficacy, comparison of doses [6]: 5 mg/kg was more efficacious than 2.5 mg/kg
